From US6670379B2, “Piperidine compounds for use as ccr-3 inhibitors” (Novartis AG, priority 2000, dated 2003)

Legend:
[1] = biological target: T1, human CCR-3 (Homo sapiens, UniProt P51677); assay: CCR-3 Binding Assay (SPA, [125I]-human eotaxin); details: membranes of RBL-2H3 cells stably expressing CCR3; 50 pM [125I]-human eotaxin; 4 hours at room temperature; read-out: IC50 (inhibition of binding of human eotaxin to human CCR-3)
T1 construct: expressed in transfected cells; host or cells: rat basophil leukemia (RBL-2H3) cells
T1 sequence (P51677 1-355): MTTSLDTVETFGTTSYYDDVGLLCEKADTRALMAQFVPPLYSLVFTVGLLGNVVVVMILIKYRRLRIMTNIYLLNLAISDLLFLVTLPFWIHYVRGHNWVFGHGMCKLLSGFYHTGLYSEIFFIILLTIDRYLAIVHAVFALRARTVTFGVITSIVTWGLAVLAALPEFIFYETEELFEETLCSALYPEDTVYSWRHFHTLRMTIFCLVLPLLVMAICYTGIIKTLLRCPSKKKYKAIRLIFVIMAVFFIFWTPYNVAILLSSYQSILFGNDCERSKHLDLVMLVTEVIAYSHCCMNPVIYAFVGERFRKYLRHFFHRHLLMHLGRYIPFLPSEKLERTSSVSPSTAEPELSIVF
Protocol: In this assay the effect of agents of the invention on the binding of human eotaxin to human CCR-3 is determined. Recombinant cells expressing human CCR-3 are captured by wheatgerm agglutinin (WGA) polyvinyltoluidene (PVT) SPA beads (available from Amersham), through a specific interaction between the WGA and carbohydrate residues of glycoproteins on the surface of the cells. [^125I]-human eotaxin (available from Amersham) binds specifically to CCR-3 receptors bringing the [^125I]-human eotaxin in close proximity to the SPA beads. Emitted â-particles from the [^125I]-human eotaxin excite, by its proximity, the fluorophore in the beads and produce light.
Preparation of Assay Buffer: 5.96 g HEPES and 7.0 g sodium chloride are dissolved in distilled water and 1M aqueous CaCl2 (1 mL) and 1M aqueous MgCl2 (5 mL) are added. The pH is adjusted to 7.6 with NaOH and the solution made to a final volume of 1 L using distilled water. 5 g bovine serum albumin and 0.1 g sodium azide are then dissolved in the solution and the resulting buffer stored at 4° C. A Complete™ protease inhibitor cocktail tablet (available from Boehringer) is added per 50 mL of the buffer on the day of use.
Preparation of Homogenisation Buffer: Tris-base (2.42 g) is dissolved in distilled water, the pH of the solution is adjusted to 7.6 with hydrochloric acid and the solution is diluted with distilled water to a final volume of 1L. The resulting buffer is stored at 4° C. A Complete™ protease inhibitor cocktail tablet is added per 50 mL of the buffer on the day of use.
Preparation of membranes: Confluent rat basophil leukemia (RBL-2H3) cells stably expressing CCR3 are removed from tissue culture flasks using enzyme-free cell dissociation buffer and resuspended in phosphate-buffered saline. The cells are centrifuged (800 g, 5 minutes), the pellet resuspended in ice-cold homogenisation buffer using 1 mL homogenisation buffer per gram of cells and incubated on ice for 30 minutes. The cells are homogenised on ice with 10 strokes in a glass mortar and pestle. The homogenate is centrifuged (800 g, 5 minutes, 4° C.), the supernatant further centrifuged (48,000 g, 30 minutes, 4° C.) and the pellet redissolved in Homogenisation Buffer containing 10% (v/v) glycerol. The protein content of the membrane preparation is estimated by the method of Bradford (Anal.Biochem. (1976) 72:248) and aliquots are snap frozen and stored at −80° C. The assay is performed in a final volume of 250 μL per well of an Optiplate (ex Canberra Packard). To selected wells of the Optiplate are added 50 μL of solutions of a test compound in Assay Buffer containing 5% DMSO (concentrations from 0.1 nM to 10 μM). To determine total binding, 50 μL of the Assay Buffer containing 5% DMSO is added to other selected wells. To determine non-specific binding, 50 μL of 100 nM human eotaxin (ex R&D Systems) in Assay Buffer containing 5% DMSO is added to further selected wells. To all wells are added 50 μL [^125I]-Human eotaxin (ex Amersham) in Assay Buffer containing 5% DMSO at a concentration of 250 pM (to give a final concentration of 50 pM per well), 50 μL of WGA-PVT SPA beads in Assay Buffer (to give a final concentration of 1.0 mg beads per well) and 100 μL of the membrane preparation at a concentration of 100 μg protein in Assay Buffer (to give a final concentration of 10 μg protein per well). The plate is then incubated for 4 hours at room temperature. The plate is sealed using TopSeal-S (ex Canberra Packard) according to the manufacturer's instructions. The resulting scintillations are counted using a Canberra Packard TopCount, each well being counted for 1 minute. The concentration of test compound at which 50% inhibition occurs (IC50) is determined from concentration-inhibition curves in a conventional manner.

[2] = biological target: alpha-1 adrenergic receptor; assay: alpha-1 adrenergic receptor radioligand binding assay ([125I]-HEAT, rat cerebral cortex membranes); details: for IC50: [125I]-HEAT 40 pM, 37° C. for 60 min, read-out: IC50 (inhibition of binding of the alpha-1 adrenergic receptor)
Protocol: Cerebral cortices from male Sprague-Dawley rats (175-200 g) are dissected and homogenised in 10 volumes of ice cold 0.32 M sucrose (containing 1 mM MgCl2 dihydrate and 1 mM K2HPO4) with a glass/teflon homogeniser. The membranes are centrifuged at 1000×g for 15 min., the pellet discarded and the centrifugation repeated. The supernatants are pooled and centrifuged at 18,000×g for 15 min. The pellet is osmotically shocked in 10 volumes of water and kept on ice for 30 min. The suspension is centrifuged at 39,000×g for 20 min., resuspended in Krebs-Henseleit buffer pH 7.4 (1.17 mM MgSO4 anhydrous, 4.69 mM KCl, 0.7 mM K2HPO4 anhydrous, 0.11M NaCl, 11 mM D-glucose and 25 mM NaHCO3) containing 20 mM Tris, and kept for 2 days at −20° C. The membranes are then thawed at 20-23° C., washed three times with Krebs-Henseleit buffer by centrifugation at 18,000×g for 15 min., left overnight at 4° C. and washed again three times. The final pellet is resuspended with a glass/teflon homogeniser in 125 mL/100 membranes in the same buffer. A sample is taken to determine the protein concentration (using the Bradford Assay with gamma globulin as the standard) and the remainder aliquoted and stored at −80° C.
The resulting membranes are subjected to a radioligand binding assay. […] The plates are incubated at 37° C. for 60 min., after which rapid vacuum filtration over Whatman GF/C 96 well filter plates is carried out. Each plate is then washed three times with 10 ml of ice cold assay buffer using a Brandel Cell harvester (Gaithersburg, Md.). Following drying of the plates for 3 h. at 50° C., 40 μL of Microscint 20 is added to each well, the plates incubated at room temperature for a further 20 min. and the retained radioactivity quantified in a Packard Topcount NXT scintillation counter.
Stock solutions of test compounds are dissolved initially in 100% DMSO and diluted with assay buffer to the required concentrations to yield 1% (v/v) DMSO.

An IC50 [1] of 125 nM and an IC50 [2] of 210 nM were found for `N#Cc1cccc(/C=C/C(=O)NCCN2CCC(C(=O)c3ccc(F)cc3)CC2)c1` [Example 1] in this work.
An IC50 [1] of 68 nM and an IC50 [2] of 221 nM were found for `N#Cc1cccc(/C=C/C(=O)N[C@H](Cc2ccccc2)CN2CCC(C(=O)c3ccc(F)cc3)CC2)c1` [Example 2, (E)-N-{(R)-1-Benzyl-2-[4-(4-fluoro-benzoyl)-piperidin-1-yl]-ethyl}-3-(3-cyano-phenyl)-acrylamide] in this work.
An IC50 [1] of 13 nM and an IC50 [2] of 94 nM were found for `CCOc1ccc(Br)cc1/C=C/C(=O)N[C@H](Cc1ccccc1)CN1CCC(C(=O)c2ccc(F)cc2)CC1` [Example 4] in this work.
An IC50 [1] of 15 nM and an IC50 [2] of 48 nM were found for `COc1ccc(Br)cc1/C=C/C(=O)NCCN1CCC(C(=O)c2ccc(F)cc2)CC1` [Example 7] in this work.
An IC50 [1] of 5 nM and an IC50 [2] of 58 nM were found for `COc1ccc(Br)cc1/C=C/C(=O)N[C@H](Cc1cccnc1)CN1CCC(C(=O)c2ccc(F)cc2)CC1` [Example 9] in this work.
An IC50 [1] of 26 nM and an IC50 [2] of 53 nM were found for `COc1ccc(Br)cc1/C=C/C(=O)NCCN1CCC(C(=O)c2ccc(Cl)cc2)CC1` [Example 13, (E)-3-(5-Bromo-2-methoxy-phenyl)-N-{2-[4-(4-chloro-benzoyl)-piperidin-1-yl]-ethyl}-acrylamide] in this work.
An IC50 [1] of 8 nM and an IC50 [2] of 89 nM were found for `CC(C)Oc1ccc(Br)cc1/C=C/C(=O)NCCN1CCC(C(=O)c2ccc(F)cc2)CC1` [Example 20] in this work.
An IC50 [1] of 10 nM and an IC50 [2] of 131 nM were found for `N#Cc1cccc(/C=C/C(=O)N[C@H](Cc2ccco2)CN2CCC(C(=O)c3ccc(F)cc3)CC2)c1` [Example 23] in this work.
An IC50 [1] of 11 nM and an IC50 [2] of 387 nM were found for `COc1ccc(Br)cc1/C=C/C(=O)N[C@H](CO)CN1CCC(C(=O)c2ccc(F)cc2)CC1` [Example 25] in this work.
An IC50 [1] of 2 nM and an IC50 [2] of 72 nM were found for `COc1ccc(C#N)cc1/C=C/C(=O)N[C@H](Cc1ccco1)CN1CCC(C(=O)c2ccc(F)cc2)CC1` [Example 28] in this work.
An IC50 [1] of 13 nM and an IC50 [2] of 121 nM were found for `COc1ccc(C#N)cc1/C=C/C(=O)N[C@H](Cc1cnc[nH]1)CN1CCC(C(=O)c2ccc(F)cc2)CC1` [Example 30] in this work.
An IC50 [1] of 14 nM and an IC50 [2] of 1520 nM were found for `COc1ccc(C#N)cc1/C=C/C(=O)N[C@H](CO)CN1CCC(C(=O)c2ccc(Cl)cc2)CC1` [Example 38, (E)-N-{(S)-2-[4-(4-chloro-benzoyl)-piperidin-1-yl]-1-hydroxymethyl-ethyl}-3-(5-cyano-2-methoxy-phenyl)-acrylamide] in this work.
An IC50 [1] of 6 nM and an IC50 [2] of 215 nM were found for `COc1ccc(Cl)cc1/C=C/C(=O)N[C@H](CO)CN1CCC(C(=O)c2ccc(Cl)cc2)CC1` [Example 40] in this work.
An IC50 [1] of 22 nM and an IC50 [2] of 356 nM were found for `COc1ccc(Br)cc1/C=C/C(=O)N[C@H](CO)CN1CCC(C(=O)c2ccc(Cl)cc2)CC1` [Example 43] in this work.
An IC50 [1] of 25 nM and an IC50 [2] of 331 nM were found for `COc1ccc(C#N)cc1/C=C/C(=O)N[C@H](Cc1ccncc1)CN1CCC(C(=O)c2ccc(F)cc2)CC1` [Example 44] in this work.
A melting point of 162 to 163 °C was found for `COc1ccc(C#N)cc1/C=C/C(=O)N[C@H](CO)CN1CCC(C(=O)c2ccc(Cl)cc2)CC1` [Example 47, (E)-N-{(S)-1-[4-(4-Chloro-benzoyl)-piperidin-1-ylmethyl]-2-hydroxy-ethyl}-3-(5-cyano-2-methoxy-phenyl)-acrylamide] in this work.
A Kd [2] of 0.0589 ± 0.0187 nM was found for `O=C1c2ccccc2CCC1CNCCc1ccc(O)c(I)c1` (centres unmarked) [[^125I]-HEAT, reference compound] in this work.
